No end group written: not given here.
What was measured:
Format in all cases: biochemical
[1] = molecular target: Conus γ-glutamyl carboxylase (Conus radiatus venom duct microsomes); conditions: for IC50: read-out: apparent IC50; for Km: read-out: apparent Km
[2] = molecular target: T1, bovine microsomal γ-glutamyl carboxylase (Bos taurus, UniProt Q07175)
T1 construct: For experiments with bovine microsomes, 380 μg of microsomal protein was present in each reaction; from tissue; host or cells: bovine microsomes, gift of Dr. D. W. Stafford
T1 sequence (Q07175 1-758): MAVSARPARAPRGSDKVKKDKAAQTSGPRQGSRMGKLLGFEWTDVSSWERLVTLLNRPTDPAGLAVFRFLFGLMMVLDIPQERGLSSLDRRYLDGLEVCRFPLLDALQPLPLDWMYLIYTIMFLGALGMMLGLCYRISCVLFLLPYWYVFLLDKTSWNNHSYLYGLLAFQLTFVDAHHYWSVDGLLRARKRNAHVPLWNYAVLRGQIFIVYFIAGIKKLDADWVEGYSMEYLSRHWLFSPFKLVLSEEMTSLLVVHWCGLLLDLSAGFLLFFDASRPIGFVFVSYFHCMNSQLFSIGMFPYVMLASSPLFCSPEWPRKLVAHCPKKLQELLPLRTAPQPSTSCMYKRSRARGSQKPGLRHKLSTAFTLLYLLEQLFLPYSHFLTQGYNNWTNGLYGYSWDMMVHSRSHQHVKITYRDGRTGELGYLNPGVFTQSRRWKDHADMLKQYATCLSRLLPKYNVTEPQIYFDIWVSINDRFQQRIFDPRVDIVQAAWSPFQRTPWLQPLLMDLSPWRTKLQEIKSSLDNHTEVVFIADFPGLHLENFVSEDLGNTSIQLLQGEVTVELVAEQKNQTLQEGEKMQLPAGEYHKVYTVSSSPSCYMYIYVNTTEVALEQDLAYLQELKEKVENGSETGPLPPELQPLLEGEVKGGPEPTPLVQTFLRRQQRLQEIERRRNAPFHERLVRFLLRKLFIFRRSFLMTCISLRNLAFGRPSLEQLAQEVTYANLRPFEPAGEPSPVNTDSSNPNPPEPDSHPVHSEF

Conus γ-carboxylase = system: Conus γ-carboxylase

KSAARSTDDNGKDRLTQMKRILKQRGNKAR [Pro (-30 to -1)]
IC50 [1]: 200 µM

GTGTLDDGGALTERRSADAT [Pro (-60 to -41)]
effect on the carboxylation of FLEEL or E.ConG [1]: no effect
inhibition of carboxylation of -10.Pro-E.Con-G [1]: did not inhibit
IC50 [1]: > 1000 µM

ILKQRGNKARGEEELQENQELIREKSN-NH2 [-10.Pro-E.Con-G]
Km [1]: 1840 ± 109 µM

GKDRLTQMKRILKQRGNKARGEEELQENQELIREKSN-NH2 [-20.Pro-E.Con-G]
pmol 14CO2 Incorporated [2]: 3 pmol
substrate quality for γ-carboxylation, mammalian enzyme [2]: extremely poor
Glu residues carboxylated (Gla analysis of reaction product) (Conus γ-carboxylase): Glu2 was not carboxylated. The rest of the Glu residues were carboxylated, although Glu14 was not efficiently carboxylated
pmol 14CO2 Incorporated [1]: 2741 pmol
substrate quality for γ-carboxylation, Conus enzyme [1]: excellent substrate
Km [1]: 28 ± 3 µM

ALKAEPVLLQKSAARSTDDN [Pro (-40 to -21)]
effect on the carboxylation of FLEEL or E.ConG [1]: no effect
inhibition of carboxylation of -10.Pro-E.Con-G [1]: did not inhibit
IC50 [1]: > 1000 µM

GKDRLTQMKRILKQRGNKARFLEEL-NH2 [-20.Pro-FLEEL]
Km [1]: 4 µM

FLEEL [reference compound]
pmol 14CO2 Incorporated [2]: 249 pmol
pmol 14CO2 Incorporated [1]: 818 pmol
Km [1]: 301 ± 6 µM

Reference: US6197535A, “Methods for purifying and assaying a conus γ-carboxylase” (University of Utah Research Foundation, priority 1999, dated 2001)
